Counter-ions that a name gives are not always drawn.
Biological target: T1, human NHE-1 (Homo sapiens, UniProt P19634)
T1 construct: expressed in transfected cells
Test: NHE-1 inhibition, FLIPR assay of pHi recovery in transfected cell lines
Type: cell-based
Details: transfected LAP-1 cell line expressing human NHE-1, read-out: NHE1 inhibition IC50
Description: Determination of the NHE Inhibition
The inhibitory concentration IC50 for NHE-1 inhibition was determined as follows:
IC50 for NHE-1 inhibition was determined in an FLIPR assay by measurement of the pHi recovery in transfected cell lines which express human NHE-1.
The assay was carried out in an FLIPR (fluorometric imaging plate reader) with black-walled 96-well microtiter plates with clear bases.
The growth medium for the transfected cells (Iscove+10% fetal calf serum) additionally contained G418 as selection antibiotic in order to ensure the presence of the transfected sequences.
The actual assay started with the removal of the growth medium and addition of 100 μl of loading buffer per well (5 μM BCECF-AM [2′,7′-bis(carboxyethyl)-5- (and -6-)carboxyfluorescein, acetoxymethyl ester] in 20 mM NH4Cl, 115 mM choline chloride, 1 mM MgCl2, 1 mM CaCl2, 5 mM KCl, 20 mM HEPES, 5 mM glucose; pH 7.4 [adjusted with KOH]). The cells were then incubated at 37° C. for 20 minutes. This incubation led to loading of the cells with the fluorescent dye whose fluorescence intensity depends on pHi, and with NH4Cl which made the cells slightly alkaline.
The nonfluorescent dye precursor BCECF-AM is, as ester, membrane-permeable. The actual dye BCECF is not membrane-permeable but is liberated inside cells by esterases.
After this incubation for 20 minutes, the loading buffer which contained NH4Cl and free BCECF-AM was removed by washing three times in a cell washer (Tecan Columbus) with in each case 400 μl of washing buffer (133.8 mM choline chloride, 4.7 mM KCl, 1.25 mM MgCl2, 1.25 mM CaCl2, 0.97 mM K2HPO4, 0.23 mM KH2PO4, 5 mM HEPES, 5 mM glucose pH 7.4 [adjusted with KOH]). The residual volume which remained in the wells was 90 μl (50-125 μl possible). This washing step removed the free BCECF-AM and resulted, as a consequence of the removal of the external NH4^+ ions, in intracellular acidification (˜pHi 6.3-6.4).
This may eventually lead to cell death if it persists long enough.
It was important at this point that the washing buffer was sodium-free (<1 mM) because extracellular sodium ions would lead to an instantaneous recovery of the pHi through the activity of the cloned NHE isoforms. It was likewise important for all the buffers used (loading buffer, washing buffer, recovery buffer) not to contain any HCO3^− ions, because the presence of bicarbonate would lead to activation of interfering bicarbonate-dependent pHi regulatory systems present in the parental LAP-1 cell line.
The microtiter plates with the acidified cells were then (up to 20 minutes after the acidification) transferred to the FLIPR. In the FLIPR, the intracellular fluorescent dye was excited by light with a wavelength of 488 nm generated by an argon laser, and the measured parameters (laser power, illumination time and aperture of the CCD camera incorporated in the FLIPR) were chosen so that the average fluorescence signal per well was between 30 000 and 35 000 relative fluorescence units.
The actual measurement in the FLIPR started with a photograph being taken by the CCD camera every two seconds under software control. After ten seconds, the recovery of the intracellular pH was initiated by adding 90 μl of recovery buffer (133.8 mM NaCl, 4.7 mM KCl, 1.25 mM MgCl2, 1.25 mM CaCl2, 0.97 mM K2HPO4, 0.23 mM KH2PO4, 10 mM HEPES, 5 mM glucose; pH 7.4 [adjusted with NaOH]) by means of the 96-well pipettor incorporated in the FLIPR.
Positive control wells (100% NHE activity) were those to which pure recovery buffer is added, while negative controls (0% NHE activity) received washing buffer. Recovery buffer with twice the concentration of test substance was added to all the other wells. Measurement in the FLIPR terminated after 60 measurements (two minutes).
The raw data are exported into the ActivityBase program. This program firstly calculates the NHE activities for each tested substance concentration and, from these, the IC50 values for the substances. […]

T1 sequence (P19634 whole entry): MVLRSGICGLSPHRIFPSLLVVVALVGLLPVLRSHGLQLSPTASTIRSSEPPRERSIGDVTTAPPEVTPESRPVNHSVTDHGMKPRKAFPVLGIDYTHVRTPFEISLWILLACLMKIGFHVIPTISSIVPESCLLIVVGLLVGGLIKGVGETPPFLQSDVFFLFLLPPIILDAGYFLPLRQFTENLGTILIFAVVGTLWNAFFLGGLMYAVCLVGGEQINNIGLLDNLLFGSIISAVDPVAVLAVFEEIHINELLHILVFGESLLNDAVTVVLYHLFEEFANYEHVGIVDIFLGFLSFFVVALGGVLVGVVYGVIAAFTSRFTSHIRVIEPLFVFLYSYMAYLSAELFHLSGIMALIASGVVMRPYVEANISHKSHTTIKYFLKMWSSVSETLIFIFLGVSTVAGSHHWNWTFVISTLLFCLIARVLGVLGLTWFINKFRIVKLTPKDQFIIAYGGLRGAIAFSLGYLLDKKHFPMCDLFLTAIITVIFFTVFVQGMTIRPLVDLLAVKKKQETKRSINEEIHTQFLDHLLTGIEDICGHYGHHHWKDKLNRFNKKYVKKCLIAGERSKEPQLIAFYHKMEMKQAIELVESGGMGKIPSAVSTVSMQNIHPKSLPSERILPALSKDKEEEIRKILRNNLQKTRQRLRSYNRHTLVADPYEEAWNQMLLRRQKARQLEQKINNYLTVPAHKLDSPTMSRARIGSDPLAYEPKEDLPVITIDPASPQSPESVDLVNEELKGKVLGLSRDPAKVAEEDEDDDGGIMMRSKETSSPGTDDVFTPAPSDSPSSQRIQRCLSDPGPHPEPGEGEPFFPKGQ

| SMILES | IC50 [nM] |
| --- | --- |
| Cc1cc(N2CC(c3ccccc3)CS2(=O)=O)c(S(C)(=O)=O)cc1C(=O)N=C(N)N (single isomer, unassigned; enantiomer a) [Example 5, N-[4-(1,1-Dioxo-4-phenylisothiazolidin-2-yl)-5-methanesulfonyl-2-methylbenzoyl]guanidine, hydrochloride, enantiomer A] | 13 |
| Cc1cc(N2CC(c3ccccc3)CS2(=O)=O)c(S(C)(=O)=O)cc1C(=O)N=C(N)N (single isomer, unassigned; enantiomer b) [Example 6, N-[4-(1,1-Dioxo-4-phenylisothiazolidin-2-yl)-5-methanesulfonyl-2-methylbenzoyl]guanidine, hydrochloride, enantiomer B] | 45 |
| Cc1cc(N2CCCCS2(=O)=O)c(S(C)(=O)=O)cc1C(=O)N=C(N)N [Example 2, N-[4-(1,1-Dioxo-[1,2]thiazinan-2-yl)-5-methanesulfonyl-2-methylbenzoyl]guanidine] | 144 |
| Cc1cc(N2C(C)(C)CCS2(=O)=O)c(S(C)(=O)=O)cc1C(=O)N=C(N)N [Example 3, N-[4-(3,3-Dimethyl-1,1-dioxoisothiazolidin-2-yl)-5-methanesulfonyl-2-methylbenzoyl]guanidine,] | 195 |
| Cc1cc(N2CC(c3ccccc3)CS2(=O)=O)c(S(C)(=O)=O)cc1C(=O)N=C(N)N (stereo not shown) [Example 4, N-[4-(1,1-Dioxo-4-phenylisothiazolidin-2-yl)-5-methanesulfonyl-2-methylbenzoyl]guanidine, hydrochloride] | 6 |
| Cc1cc(N2CC(c3ccc(F)cc3)CS2(=O)=O)c(S(C)(=O)=O)cc1C(=O)N=C(N)N (stereo not shown) [Example 7, N-{4-[4-(4-Fluorophenyl)-1,1-dioxoisothiazolidin-2-yl]-5-methanesulfonyl-2-methylbenzoyl}guanidine, hydrochloride] | 19 |
| Cc1cc(N2CCCN(C3CC3)S2(=O)=O)c(S(C)(=O)=O)cc1C(=O)N=C(N)N [Example 12, N-[4-(6-Cyclopropyl-1,1-dioxo-1-[1,2,6]thiadiazinan-2-yl)-5-methanesulfonyl-2-methlbenzoyl]guanidine] | 1520 |
| NC(N)=NC(=O)c1ccc(N2CCCCS2(=O)=O)c(C(F)(F)F)c1 [Example 14, N-[4-(1,1-Dioxo-1-[1,2]thiazinan-2-yl)-3-trifluoromethyl-benzoyl]guanidine] | 13 |

Further lines, results first:

| IC50 [nM] | SMILES |
| --- | --- |
| 113 | Cc1cc(N2CCN(C3CC3)S2(=O)=O)c(S(C)(=O)=O)cc1C(=O)N=C(N)N [Example 11, N-[4-(5-Cyclopropyl-1,1-dioxo-1-[1,2,5]thiadiazolidin-2-yl)-5-methanesulfonyl-2-methlbenzoyl]guanidine] |
| 51 | Cc1cc(N2CC(c3ccccc3)CCS2(=O)=O)c(S(C)(=O)=O)cc1C(=O)N=C(N)N (stereo not shown) [Example 10, N-[4-(1,1-Dioxo-4-phenyl-1-[1,2]thiazinan-2-yl)-5-methanesulfonyl-2-methylbenzoyl]guanidine] |
| 38 | Cc1cc(N2CCCS2(=O)=O)c(S(C)(=O)=O)cc1C(=O)N=C(N)N [Example 1, N-[4-(1,1-Dioxoisothiazolidin-2-yl)-5-methanesulfonyl-2-methyl-benzoyl]guanidine] |
| 23 | Cc1cc(N2CC(c3ccc(F)cc3)CS2(=O)=O)c(S(C)(=O)=O)cc1C(=O)N=C(N)N.Cl (single isomer, unassigned; enantiomer b) [Example 9, N-{4-[4-(4-Fluorophenyl)-1,1-dioxoisothiazolidin-2-yl]-5-methanesulfonyl-2-methylbenzoyl}guanidine, hydrochloride, enantiomer B] |
| 20 | NC(N)=NC(=O)c1ccc(N2CCCS2(=O)=O)c(C(F)(F)F)c1 [Example 13, N-[4-(1,1-Dioxo-1-isothiazolidin-2-yl)-3-trifluoromethyl-benzoyl]guanidine] |
| 12 | Cc1cc(N2CC(c3ccc(F)cc3)CS2(=O)=O)c(S(C)(=O)=O)cc1C(=O)N=C(N)N (single isomer, unassigned; enantiomer a) [Example 8, N-{4-[4-(4-Fluorophenyl)-1,1-dioxoisothiazolidin-2-yl]-5-methanesulfonyl-2-methlbenzoyl}guanidine, hydrochloride, enantiomer A] |

System: not listed separately
Test: In vivo pharmacokinetics, "n in one method", i.v. bolus in beagle dog
Details: iv; fasting male beagle dog, single i.v. bolus into jugular vein, about 1 mg/kg, plasma, co-administered (n in one)
Description: In vivo pharmacokinetics—profiling with the “n in one method”
The exposure data and the half-life were determined as characteristic pharmacokinetic data as follows:
The NHE-1 inhibitor of Example 9 of the invention and, as reference substance, the known NHE-1 inhibitor cariporide with the formula
[drawing 23] were dissolved in an aqueous, slightly acidic medium (water, pH 4, adjusted with 1M hydrochloric acid). The concentration of the aqueous formulation prepared in this way was about 1.5 mg of each substance per 1 g of solution. 10 ml of this formulation were administered as a single bolus by catheter into the jugular vein of a fasting male beagle dog (dose about 1 mg of each substance administered per kg of the dog's body weight). […]
The plasma samples were worked up and, after an HPLC separation, quantified by MS/MS. […] The exposures could be calculated using the WinNonlin computer program from the concentration-time plots (see FIG. 1) and compared with the exposure of the known NHE-1 reference substance. Since the various substances were measured in the same animal at the same time, the result was an accurate comparison of the compounds, and a ranking of the volumes of distribution was possible.

| SMILES | half-life [h] |
| --- | --- |
| Cc1cc(N2CC(c3ccc(F)cc3)CS2(=O)=O)c(S(C)(=O)=O)cc1C(=O)N=C(N)N.Cl (single isomer, unassigned; enantiomer b) [Example 9, N-{4-[4-(4-Fluorophenyl)-1,1-dioxoisothiazolidin-2-yl]-5-methanesulfonyl-2-methylbenzoyl}guanidine, hydrochloride, enantiomer B] | 4.6 |
| CC(C)c1ccc(C(=O)N=C(N)N)cc1S(C)(=O)=O.CS(=O)(=O)O [cariporide, reference compound] | 3.3 |

Source: patent publication US7772262B2, “Substituted benzoylguanidines, method for production and use thereof as medicament or diagnostic and medicament comprising the same” (sanofi-aventis Deutschland GmbH, priority 2004, dated 2010)
